In US20120202794A1 (priority 2011, published 2012):

Assays:
[1] = test system: Huh7, HepG2, BxPC3, or CEM cells; assay: Cell cytotoxicity assay (MTS), CC90 as reported in Table 1, cell line not stated; assay type: cell-based; conditions: MTS assay; 8 days incubation; cell line not given
How it was run: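 MTS read-out (490 nm, 2 h dye step) after 8-day exposure at 37° C. Huh7, HepG2, BxPC3 were seeded at 2×10^3 and CEM at 5×10^3 cells/well, with compound serially diluted from 100 μM. CC90 comes from comparison with untreated control wells.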

HCV Replicon 1b = assay: HCV inhibition assay, HCV replicon 1b (Clone A or ET-lunet cells; RT-PCR or luciferase reporter); assay type: cell-based; conditions: Hepatitis C virus, 96 h, HCV replicon 1b; 4 days incubation; read-out: Replicon 1b potency EC90
How it was run: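 Inhibition read either as luciferase signal (ET replicon) or as HCV 5′-NTR RNA by RT-PCR relative to rRNA, % = (1−2^−ΔΔCt)×100, against DMSO controls, giving EC50 and EC90. Cells: Clone A or ET-lunet, seeded 1500 or 3000/well, exposed 4 days at 37 °C, 5% CO2, 0.5% DMSO.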

Row | Structure (SMILES) | CC90 [1] [nM] | EC90 (HCV Replicon 1b) [nM]
1 | CC(C)C[C@H]1CN(C(=O)[C@@H]2C[C@H]2c2ccc(F)cc2F)[C@@H](CC(C)C)C(=O)N1 [Compound 298, (3S,6S)-4-[(1R,2R)-2-(2,4-fluoro-phenyl)-cyclopropanecarbonyl]-3,6-diisobutyl-piperazin-2-one] | > 10000 | 230
2 | CC(C)C[C@H]1C(=O)N[C@@H](c2ccccc2)CN1C(=O)[C@@H]1C[C@H]1c1ccc(Cl)cc1 [Compound 301, (3S,6S)-4-((1R,2R)-2-(4-chlorophenyl)cyclopropanecarbonyl)-3-isobutyl-6-phenyl-piperazin-2-one] | > 10000 | 170
